Assay results: ChEMBL document CHEMBL1153720, “Three dimensional pharmacophore modelling for c-Kit receptor tyrosine kinase inhibitors” (Eur J Med Chem, 2010)

Target: Mast/stem cell growth factor receptor Kit (Homo sapiens, UniProt P10721)
Assay: Inhibition of c-Kit by HTRF method

Chain of Mast/stem cell growth factor receptor Kit (P10721 whole entry): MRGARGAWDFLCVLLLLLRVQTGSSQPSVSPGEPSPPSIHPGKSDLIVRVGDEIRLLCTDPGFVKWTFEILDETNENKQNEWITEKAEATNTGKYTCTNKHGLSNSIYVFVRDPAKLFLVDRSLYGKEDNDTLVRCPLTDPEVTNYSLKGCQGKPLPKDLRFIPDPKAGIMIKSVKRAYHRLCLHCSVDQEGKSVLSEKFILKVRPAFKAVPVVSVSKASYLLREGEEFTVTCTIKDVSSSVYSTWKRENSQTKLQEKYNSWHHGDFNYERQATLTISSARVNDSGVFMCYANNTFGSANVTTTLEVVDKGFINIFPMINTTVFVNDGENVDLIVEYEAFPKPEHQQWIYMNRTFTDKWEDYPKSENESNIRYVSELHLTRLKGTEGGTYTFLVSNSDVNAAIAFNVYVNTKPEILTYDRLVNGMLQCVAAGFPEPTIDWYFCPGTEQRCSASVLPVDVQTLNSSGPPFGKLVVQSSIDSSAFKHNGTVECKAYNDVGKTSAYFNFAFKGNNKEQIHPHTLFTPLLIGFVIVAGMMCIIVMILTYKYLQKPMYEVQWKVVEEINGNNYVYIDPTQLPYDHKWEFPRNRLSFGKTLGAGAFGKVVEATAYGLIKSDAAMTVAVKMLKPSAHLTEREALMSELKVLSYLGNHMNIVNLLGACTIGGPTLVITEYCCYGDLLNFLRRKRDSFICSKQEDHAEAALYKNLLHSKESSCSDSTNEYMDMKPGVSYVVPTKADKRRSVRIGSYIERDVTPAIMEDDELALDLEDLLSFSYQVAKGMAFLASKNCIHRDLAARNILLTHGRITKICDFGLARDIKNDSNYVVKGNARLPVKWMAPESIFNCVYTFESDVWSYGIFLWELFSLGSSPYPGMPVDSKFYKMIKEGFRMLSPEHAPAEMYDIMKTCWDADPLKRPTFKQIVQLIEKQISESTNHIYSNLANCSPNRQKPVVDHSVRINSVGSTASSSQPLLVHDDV

Work on `Cc1ccccc1NC(=O)Nc1ccc(-c2c(C)sc3ncnc(N)c23)c(Cl)c1` yielded an IC50 of 0.2 µM.
